# Non-standard residues stand in square brackets, D forms with d. Residues, ends and D or L forms follow the SMILES beside them. pGlu = O=C1CC[C@@H](C(=O)O)N1
# Experiments:
# [1] = system: CFA-induced arthritis ICR mice; assay: Paw withdraw threshold (von Frey Filament) over time after single oral administration in CFA-induced arthritis mice; settings: for time after administration of best antinociceptive effect: oral, peptide 3 mg/kg, morphine 10 mg/kg, PWT at 0, 30, 60, 90, 120 min, effect started to decrease at 120 min
# [2] = system: CFA-induced arthritis ICR mice; assay: Paw withdraw threshold (von Frey Filament) after low oral doses (μg/kg) in CFA-induced arthritis mice; format: in vivo; settings: 90 min after administration; for PWT value of ipsilateral hind paw: rose from 0.065 g, FIG. 7; for PWT value of contralateral paw: rose from 0.32 g, FIG. 8
# Description: Every dosage group contained 6 mice.
# [3] = system: IL-6; assay: Serum IL-6 by ELISA in CFA-induced arthritis mice after weekly oral administration; format: in vivo; settings: 3 mg/kg oral once a week, 4th to 12th week; serum on 12th week; vs control group; FIG. 2
# Protocol: (§1) On the other hand, the mice administered with water were served as the control group, which also comprised 6 mice. The mice in the experimental group and the control group were sacrificed on the 12th week after administration. The serum collection is conducted by cardiac puncture. The Mouse TNF-α Quantikine ELISA Kit (R&D System, MTA00B), Mouse IL-6 Quantikine ELISA Kit (R&D System, M600B) and enzyme-linked immunosorbent assay (ELISA) were used to determine and collect the serum concentration of TNF-α and IL-6 of mice in the experimental group and the control group.
# [4] = system: C57BL/6JNarl male mice; assay: Radiant heat tail-flick test; format: in vivo; settings: oral doses of 0.1 μg/kg, 0.3 μg/kg, 0.1 mg/kg, 1 mg/kg, 3 mg/kg and 10 mg/kg, among 0.01 μg/kg to 10 mg/kg tested; mean latency 10-90 min; FIG. 9
# Protocol: (§2) For conducting nociceptive pain and acid-induced chronic widespread pain experiments, C57BL/6JNarl male mice (20 to 25 g) were housed in an environment with temperature control (24±0.5° C.) and 12-hour light-dark cycle (lights on during 08:00-20:00) and allowed free access to standard laboratory food and tap water. Animals were allowed to acclimatize for 20 to 30 min prior to experimental manipulations. Animal care and handling procedures were adopted in accordance with the International Association for the Study of Pain guidelines for those animals used in pain research, and the procedures were approved by the Committee for Ethics in Animal Research.
# The radiant heat tail-flick test was modified in accordance with F. E. D'Amour, D. L. Smith, A method for determining loss of pain sensation. The Journal of Pharmacology and Experimental Therapeutics 72, 74-79 (1941). The 5 to 12 mice from Preparation Example 3 were placed and acclimatized in the restrainers for 30 min prior to the tail-flick test. […] The latency was recorded every 10 min during the indicated time period (10-90 min) after oral administration with different dosages of the peptide of SEQ ID NO: 1 (0.01 μg/kg, 0.03 μg/kg, 0.1 μg/kg, 0.3 μg/kg, 1 μg/kg, 0.01 mg/kg, 0.1 mg/kg, 1 mg/kg, 3 mg/kg, and 10 mg/kg). Then the mean latency during 10-90 min was calculated. […]
# [5] = system: C57BL/6JNarl male mice; assay: Acid-induced abdominal constriction (writhing) assay; format: in vivo; settings: oral doses of 1 μg/kg and 10 mg/kg, among 0.1 μg/kg to 10 mg/kg tested; 10 min before 1% acetic acid; FIG. 9
# Protocol: as §2
# Acid-induced abdominal constriction assay was performed in accordance with H. O. Collier, L. C. Dinneen, C. A. Johnson, C. Schneider, The abdominal constriction response and its suppression by analgesic drugs in the mouse. Br J Pharmacol Chemother 32, 295-310 (1968). In general, the mice from Preparation Example 3 were placed in a small observation chamber and habituated for 20 min. […] The numbers of abdominal constrictions in 30 min after acid injection were counted and the mean constriction numbers of mice of each group were calculated. […]
# [6] = system: TNF-α; assay: Serum TNF-α by ELISA in CFA-induced arthritis mice after weekly oral administration; format: in vivo; settings: 3 mg/kg oral once a week, 4th to 12th week; serum on 12th week; FIG. 1
# Protocol: as §1
# [7] = system: CFA-induced arthritis ICR mice; assay: Paw withdraw threshold (von Frey Filament) on weekly oral administration, 4th to 12th week, in CFA-induced arthritis mice; format: in vivo; settings: 1 mg/kg oral once a week, 90 min after administration, increased from 0.4 g at 3rd week, FIG. 6
# Description: Two dosage groups both contained 6 mice. […] The control group also contained 6 mice.
SMILES,time after administration of best antinociceptive effect [1] [min],PWT value of ipsilateral hind paw ([2]; 0.3 μg/kg oral) [g],PWT value of contralateral paw ([2]; 0.3 μg/kg oral) [g],PWT value of ipsilateral hind paw ([2]; 1 μg/kg oral) [g],PWT value of contralateral paw ([2]; 1 μg/kg oral) [g],PWT value of ipsilateral hind paw ([2]; 3 μg/kg oral) [g],PWT value of contralateral paw ([2]; 3 μg/kg oral) [g],serum concentration of IL-6 [3],antinociceptive effect in the radiant heat tail-flick test [4],antinociceptive effect in the acid-induced writhing experiment [5],serum concentration of TNF-α [6],"antinociceptive effect compared with morphine ([1]; peptide 3 mg/kg oral vs morphine 10 mg/kg oral, a lower amount was required)","PWT value of ipsilateral hind paw ([1]; peptide 3 mg/kg oral, at 90 min, rose from 0.07 g, FIG. 3) [g]","PWT value of contralateral paw ([1]; peptide 3 mg/kg oral, at 90 min, rose from 0.5±0.047 g, FIG. 4) [g]",PWT value of contralateral paw [7]
"CN1CC[C@]23c4c5ccc(O)c4O[C@H]2[C@@H](O)C=C[C@H]3[C@H]1C5 [morphine, reference compound]",90,,,,,,,,,,,,,,
"CC(C)[C@H](NC(=O)[C@H](C)NC(=O)[C@@H](NC(=O)[C@H](CCC(=O)O)NC(=O)[C@@H]1CCC(=O)N1)[C@@H](C)O)C(=O)N[C@@H](CO)C(=O)N[C@@H](CO)C(=O)N[C@@H](Cc1c[nH]cn1)C(=O)N[C@@H](CCC(=O)O)C(=O)N[C@@H](CCC(N)=O)C(=O)N[C@@H](CC(=O)O)C(=O)O [peptide of SEQ ID NO: 1, Glp Glu Thr Ala Val Ser Ser His Glu Gln Asp] ([pGlu]ETAVSSHEQD-OH)",90,1,1,0.6,1.4,0.16,1,decreased compared to the control group,best antinociceptive effect,best antinociceptive effect,not detected,antinociceptive effect similar to morphine,0.9 ± 0.156,1.35 ± 0.193,0.6˜1.2 g

# Reference: patent US20220119447A1, “PEPTIDE AND FOR TREATING INFLAMMATORY DISEASE AND PAIN USING THE SAME” (PELL BIO-MED TECHNOLOGY CO., LTD., priority 2019, published 2022)
